In article PMC3006138, “Fexinidazole – A New Oral Nitroimidazole Drug Candidate Entering Clinical Development for the Treatment of Sleeping Sickness” (PLoS Neglected Tropical Diseases, 2010):
Read-outs that look alike come from different tables or passages of the source.

What was measured:
rat hepatocytes = experiment: Hepatocyte intrinsic clearance and metabolite profile; assay type: in vitro ADME; conditions: fexinidazole 10 µM
Method: (§1) Fexinidazole was incubated with cryopreserved hepatocytes from male CD-1 mice, male Sprague Dawley rats, male beagle dogs, male cynomolgus monkeys, and from pooled white or African-American human donor samples (purchased commercially), at concentrations of 1 µM and 10 µM. […] The incubated samples were analyzed by LC-MS after extraction into acetonitrile.
(§2) A quality control analysis of fexinidazole was performed via 1H-NMR in DMSO and LC- […]
(§3) provided by the Swiss Tropical Institute (Basel, Switzerland).
(§4) Reagents and solvents were of analytical grade and obtained from Sigma-Aldrich (St. Louis, […]
(§5) Cryopreserved hepatocytes from the male CD1 mouse, lot CSI; male Sprague Dawley rat, lot LPL; male beagle dog, lot BWX; male cynomolgus monkey, lot EHH; and pooled human samples, lot MJI, were purchased from In Vitro Technologies Inc (Baltimore, Maryland, […]
(§6) 5.4. In vitro Incubations
(§7) On the day of the experiment a 10 mM stock solution of fexinidazole in DMSO was prepared and, within 3 hours, aliquots of this freshly prepared solution, after suitable dilution, were added to the incubation matrix, to reach fexinidazole final concentrations of 1 and 10 µM. The final percentage of DMSO was 0.01% in the incubation samples for the […]
(§8) On the day of experiment, the cryopreserved hepatocytes were thawed following the detailed instructions provided by the supplier.
(§9) The number of viable cells was determined using a Trypan Blue exclusion method.
(§10) 5.4.1. Intrinsic Clearance Study […]
(§11) µM with mouse, rat, dog, monkey and human hepatocytes (300000 cells/mL for the mouse and 1 million cells/mL for the other species) in a final incubation volume of 0.75 mL […]
(§12) Incubations were performed in duplicate in a 48-well plate under shaking. Sampling was performed using an automatic liquid handling system (Multiprobe II EX, Packard). At 0, 1, 5, 10, 15, 20, 30, 60 and 120 minutes, 50 µL aliquots of the incubates were taken, then 80 µL of ice-cold acetonitrile and 20 µL of 1 µM warfarin in acetonitrile (internal standard) were added, and samples centrifuged at 2000 rpm for 20 min. The supernatant was analyzed by LC-MS/MS. […]
(§13) the medium alone at t = 0 and 120 minutes.
(§14) For the determination of phase I and phase II activity of hepatocytes, 7-ethoxycoumarin (7-EC) 1 µM, and 7-hydroxycoumarin (7-HC) 30 µM were used as positive controls and incubated under the same conditions as fexinidazole. Aliquots of incubates were taken at 0, 10, 20, 30, 60 and 120 minutes and processed as fexinidazole samples.
(§15) 5.4.2. Metabolite Profile Study
(§16) For metabolite profiling, fexinidazole was incubated at a concentration of 10 µM with mouse, rat, dog, monkey and human hepatocytes (300000 cells/mL for the mouse and 1 million cells/mL for the other species) in a final incubation volume of 2 mL Leibovitz L-15 […]
(§17) Aliquots of the incubation samples were taken at t = 0, 30 and 120 minutes; the metabolism was stopped by the addition of an equal volume of cold acetonitrile and the samples centrifuged at 1500 rpm for 20 min. The supernatant was stored at -20°C until analysis. Control incubations were performed with the compound in the medium alone […]
(§18) 5.5. Analysis of Samples for Intrinsic Clearance Determination
(§19) The analysis of the samples for intrinsic clearance determination was performed by an LC-MS/MS method, using the following conditions:
(§20) HPLC Equipment and Conditions
(§21) HPLC system Agilent 1100 binary pump (Agilent, Palo Alto, USA)
(§22) Autosampler CTC Pal (Alfatech, San Jose, USA)
(§23) Analytical column Guard Column SB-C8 4.6 x 12.5 mm, 5 µm (Zorbax)
(§24) Column temperature ambient
(§25) Mobile phase A 10 mM ammonium formate pH 4.0: acetonitrile (95:5, v:v)
(§26) Mobile phase B 10 mM ammonium formate pH 4.0: acetonitrile (5:95, v:v) […]
(§27) Gradient conditions Step Total time (min) flow (µL/min) %A % B […]
(§28) MS Equipment and Conditions
(§29) Mass spectrometer API 4000 Triple Quadrupole (MDS-Sciex, Toronto, […]
(§30) Source Turbo Ion Spray (TIS)
(§31) Ion mode Positive for fexinidazole and 7-EC.
(§32) Negative for 7-HC, 7-HC sulphate and 7-HC glucuronide.

mouse hepatocytes = experiment: as above; assay type: in vitro ADME; conditions: fexinidazole 10 µM
Method: as §1, §2, §3, §4, §5, §6, §7, §8, §9, §10, §11, §12, §13, §14, §15, §16, §17, §18, §19, §20, §21, §22, §23, §24, §25, §26, §27, §28, §29, §30, §31, §32

[1] = Dog 28-day toxicokinetics; assay type: in vivo; conditions: both sexes, beagle, plasma, po
Method: In the dog repeated-dose toxicokinetic study, fexinidazole was given orally by gavage once a day for 28 days to five (control and high dose) or three (low and mid dose) beagle dogs/sex/dose at the doses of 0 (control group), 50, 200, or 800 mg/kg/day. The control group received the vehicle alone (same as above). Systemic exposure to fexinidazole and of its sulfoxide and sulfone metabolites was evaluated on days 1, 14 and 28 in the same animals used for the toxicological study. Samples were taken at predose, and 30 min, 1, 2, 4, 8 and 24 h after dosing on days 1, 14, and 28, and in addition at 48 and 72 h after treatment on day 28.

dog hepatocytes = experiment: Hepatocyte intrinsic clearance and metabolite profile; assay type: in vitro ADME; conditions: fexinidazole 10 µM
Method: as §1, §2, §3, §4, §5, §6, §7, §8, §9, §10, §11, §12, §13, §14, §15, §16, §17, §18, §19, §20, §21, §22, §23, §24, §25, §26, §27, §28, §29, §30, §31, §32

[2] = 50 mg/kg/day, 50 mg/kg/day po, day 1
[3] = 50 mg/kg/day, 50 mg/kg/day po, day 1, read-out: AUC0-t(last)
[4] = 50 mg/kg/day, 50 mg/kg/day po, day 14
[5] = 50 mg/kg/day, 50 mg/kg/day po, day 14, read-out: AUC0-t(last)
[6] = 200 mg/kg/day, 200 mg/kg/day po, day 1
[7] = 200 mg/kg/day, 200 mg/kg/day po, day 1, read-out: AUC0-t(last)
[8] = 200 mg/kg/day, 200 mg/kg/day po, day 14
[9] = 200 mg/kg/day, 200 mg/kg/day po, day 14, read-out: AUC0-t(last)
[10] = 800 mg/kg/day, 800 mg/kg/day po, day 1
[11] = 800 mg/kg/day, 800 mg/kg/day po, day 1, read-out: AUC0-t(last)
[12] = 800 mg/kg/day, 800 mg/kg/day po, day 14
[13] = 800 mg/kg/day, 800 mg/kg/day po, day 14, read-out: AUC0-t(last)

Row | SMILES | % of total drug related material (rat hepatocytes; t=0) | % of total drug related material (mouse hepatocytes; t=0) | Cmax [1, 2] | Tmax [1, 2] | AUC(0-t) [1, 3] | Cmax [1, 4] | Tmax [1, 4] | AUC(0-t) [1, 5] | Cmax [1, 6] | Tmax [1, 6] | AUC(0-t) [1, 7] | Cmax [1, 8] | Tmax [1, 8] | AUC(0-t) [1, 9] | Cmax [1, 10] | Tmax [1, 10] | AUC(0-t) [1, 11] | Cmax [1, 12] | Tmax [1, 12] | AUC(0-t) [1, 13] | further results
1 | CSc1ccc(OCc2ncc([N+](=O)[O-])n2C)cc1 [Fexinidazole, 1-methyl-2-((p-(methylthio)phenoxy)methyl)-5-nitroimidazole] | 68% | 42% | 40 ± 10 ng/mL | 0.75 ± 0.61 h | 190 ± 130 ng·h/mL | 30 ± 10 ng/mL | 1.08 ± 0.74 h | 150 ± 130 ng·h/mL | 70 ± 30 ng/mL | 1 ± 0.55 h | 440 ± 90 ng·h/mL | 80 ± 10 ng/mL | 1.5 ± 0.77 h | 450 ± 140 ng·h/mL | 140 ± 70 ng/mL | 1.15 ± 0.47 h | 840 ± 320 ng·h/mL | 140 ± 50 ng/mL | 1.2 ± 0.42 h | 1050 ± 300 ng·h/mL | % of total drug related material (dog hepatocytes; t=0): 50%
2 | Cn1c([N+](=O)[O-])cnc1COc1ccc(S(C)(=O)=O)cc1 [Fexinidazole sulfone] | – | – | 8580 ± 2150 ng/mL | 7.33 ± 1.63 h | 146000 ± 38300 ng·h/mL | 7780 ± 2890 ng/mL | 5.33 ± 2.07 h | 126000 ± 59100 ng·h/mL | 17600 ± 2460 ng/mL | 12.7 ± 8.91 h | 348000 ± 63900 ng·h/mL | 21800 ± 3860 ng/mL | 5.33 ± 2.07 h | 384000 ± 49900 ng·h/mL | 36100 ± 7940 ng/mL | 14.4 ± 8.26 h | 660000 ± 164000 ng·h/mL | 36600 ± 6240 ng/mL | 6.8 ± 1.93 h | 653000 ± 118000 ng·h/mL | % of total drug related material (rat hepatocytes; 30 min): 10%; % of total drug related material (rat hepatocytes; 120 min): 32%; % of total drug related material (mouse hepatocytes; 30 min): 8%; % of total drug related material (mouse hepatocytes; 120 min): 20%; % of total drug related material (dog hepatocytes; 30 min): 4%; % of total drug related material (dog hepatocytes; 120 min): 15%
3 | Cn1c([N+](=O)[O-])cnc1COc1ccc([S+](C)[O-])cc1 (stereo not drawn) [Fexinidazole sulfoxide] | 32% | 58% | 3760 ± 970 ng/mL | 1.17 ± 0.41 h | 19600 ± 5680 ng·h/mL | 2990 ± 980 ng/mL | 1.33 ± 0.52 h | 13600 ± 5990 ng·h/mL | 8120 ± 2660 ng/mL | 1.25 ± 0.61 h | 51400 ± 14100 ng·h/mL | 8990 ± 2830 ng/mL | 2 h | 56700 ± 16600 ng·h/mL | 14500 ± 3950 ng/mL | 1.55 ± 0.6 h | 112000 ± 31800 ng·h/mL | 13600 ± 4090 ng/mL | 1.6 ± 0.97 h | 129000 ± 39800 ng·h/mL | % of total drug related material (rat hepatocytes; 30 min): 90%; % of total drug related material (rat hepatocytes; 120 min): 68%; % of total drug related material (mouse hepatocytes; 30 min): 92%; % of total drug related material (mouse hepatocytes; 120 min): 80%; % of total drug related material (dog hepatocytes; 30 min): 94%; % of total drug related material (dog hepatocytes; 120 min): 84%; % of total drug related material (dog hepatocytes; t=0): 50%
